Measurements from the NIST ThermoML archive (doi:10.1021/je060271a).
Numbers after ± are expanded uncertainties.

Conditions: 323.15 K, Liquid, Vibrating tube method

CCCCCC(=O)OCC(COC(=O)CCCCC)(COC(=O)CCCCC)COC(=O)CCCCC [pentaerythritol tetrahexanoate]
Conditions	mass density [kg/m3]
616.8 kPa	973.1 ± 1.2
618.6 kPa	973.1 ± 1.2
620.6 kPa	973.1 ± 1.2
623.1 kPa	973.3 ± 1.2
625.3 kPa	973.2 ± 1.2
627.3 kPa	973.1 ± 1.2
629.2 kPa	973.2 ± 1.2
631.2 kPa	973.1 ± 1.2
633 kPa	973.1 ± 1.2
634.7 kPa	973.1 ± 1.2
637.3 kPa	973.1 ± 1.2
639.4 kPa	973.1 ± 1.2
641.7 kPa	973 ± 1.2
643.9 kPa	973 ± 1.2
659.4 kPa	973.1 ± 1.2
662 kPa	973.2 ± 1.2
664.3 kPa	973.2 ± 1.2
666.7 kPa	973.1 ± 1.2
668.8 kPa	973.2 ± 1.2
671.2 kPa	973.2 ± 1.2
674 kPa	973.1 ± 1.2
675.9 kPa	973.1 ± 1.2
678.5 kPa	973.1 ± 1.2
681.8 kPa	973.2 ± 1.2
684.1 kPa	973.2 ± 1.2
699.5 kPa	973.1 ± 1.2
702.1 kPa	973.1 ± 1.2
704.4 kPa	973.1 ± 1.2
707.2 kPa	973.2 ± 1.2
709.1 kPa	973.2 ± 1.2
712 kPa	973.1 ± 1.2
741.4 kPa	973.1 ± 1.2
744 kPa	973.3 ± 1.2
746.6 kPa	973.1 ± 1.2
749.6 kPa	973.2 ± 1.2
752.5 kPa	973.1 ± 1.2
755.1 kPa	973.3 ± 1.2
757.9 kPa	973.2 ± 1.2
760.3 kPa	973.2 ± 1.2
765.9 kPa	973.2 ± 1.2
768.5 kPa	973.2 ± 1.2
772.1 kPa	973.2 ± 1.2
774.9 kPa	973.1 ± 1.2
777.5 kPa	973.3 ± 1.2
780 kPa	973.2 ± 1.2
783.1 kPa	973.2 ± 1.2
785.3 kPa	973.1 ± 1.2
788.3 kPa	973.3 ± 1.2
791.4 kPa	973.2 ± 1.2
794.4 kPa	973.2 ± 1.2
796 kPa	973.2 ± 1.2
798.4 kPa	973.3 ± 1.2
815.2 kPa	973.3 ± 1.2
817.7 kPa	973.3 ± 1.2
821 kPa	973.3 ± 1.2
824.1 kPa	973.4 ± 1.2
827.1 kPa	973.3 ± 1.2
830.2 kPa	973.2 ± 1.2
833.5 kPa	973.3 ± 1.2
836.8 kPa	973.2 ± 1.2
839.5 kPa	973.3 ± 1.2
842.8 kPa	973.2 ± 1.2
845.5 kPa	973.2 ± 1.2
849.1 kPa	973.3 ± 1.2
851.9 kPa	973.2 ± 1.2
855.5 kPa	973.3 ± 1.2
871.5 kPa	973.2 ± 1.2
875.2 kPa	973.2 ± 1.2
877.8 kPa	973.2 ± 1.2
880.9 kPa	973.3 ± 1.2
884.5 kPa	973.3 ± 1.2
887.3 kPa	973.2 ± 1.2
890.8 kPa	973.2 ± 1.2
894.6 kPa	973.2 ± 1.2
897.6 kPa	973.2 ± 1.2
900.3 kPa	973.2 ± 1.2
904 kPa	973.3 ± 1.2
906.8 kPa	973.3 ± 1.2
910.8 kPa	973.3 ± 1.2
913.5 kPa	973.3 ± 1.2
920.1 kPa	973.2 ± 1.2
926.9 kPa	973.3 ± 1.2
930.6 kPa	973.3 ± 1.2
933.3 kPa	973.3 ± 1.2
936.1 kPa	973.2 ± 1.2
940 kPa	973.3 ± 1.2
942.9 kPa	973.4 ± 1.2
947.1 kPa	973.3 ± 1.2
950.7 kPa	973.3 ± 1.2
953.5 kPa	973.3 ± 1.2
957 kPa	973.4 ± 1.2
960.8 kPa	973.3 ± 1.2
963.6 kPa	973.4 ± 1.2
968.1 kPa	973.2 ± 1.2
971.9 kPa	973.2 ± 1.2
975.6 kPa	973.4 ± 1.2
978.9 kPa	973.4 ± 1.2
983 kPa	973.3 ± 1.2
987 kPa	973.3 ± 1.2
991 kPa	973.4 ± 1.2
995 kPa	973.4 ± 1.2
999.9 kPa	973.3 ± 1.2
1003.3 kPa	973.4 ± 1.2
1007 kPa	973.4 ± 1.2
1011.7 kPa	973.4 ± 1.2
1016 kPa	973.4 ± 1.2
1062.4 kPa	973.4 ± 1.2
1065.9 kPa	973.3 ± 1.2
1069.5 kPa	973.4 ± 1.2
1073.9 kPa	973.3 ± 1.2
1077.3 kPa	973.4 ± 1.2
1082 kPa	973.5 ± 1.2
1085.7 kPa	973.4 ± 1.2
1090.4 kPa	973.5 ± 1.2
1094.2 kPa	973.5 ± 1.2
1099 kPa	973.5 ± 1.2
1103 kPa	973.5 ± 1.2
1128.6 kPa	973.4 ± 1.2
1132.2 kPa	973.4 ± 1.2
1137.1 kPa	973.4 ± 1.2
1140.7 kPa	973.5 ± 1.2
1145.6 kPa	973.5 ± 1.2
1149.6 kPa	973.5 ± 1.2
1154.3 kPa	973.5 ± 1.2
1159 kPa	973.5 ± 1.2
1163.8 kPa	973.5 ± 1.2
1243.7 kPa	973.6 ± 1.2
1248 kPa	973.6 ± 1.2
1253.4 kPa	973.5 ± 1.2
1258.3 kPa	973.4 ± 1.2
1263.5 kPa	973.5 ± 1.2
1269.2 kPa	973.5 ± 1.2
1273.9 kPa	973.7 ± 1.2
1278.6 kPa	973.5 ± 1.2
1284.5 kPa	973.6 ± 1.2
1289.2 kPa	973.6 ± 1.2
1294.7 kPa	973.5 ± 1.2
1299.6 kPa	973.6 ± 1.2
1305.5 kPa	973.5 ± 1.2
1310 kPa	973.5 ± 1.2
1315.4 kPa	973.5 ± 1.2
1319.9 kPa	973.5 ± 1.2
1325.8 kPa	973.5 ± 1.2
1331.7 kPa	973.6 ± 1.2
1411.8 kPa	973.6 ± 1.2
